Test results reported in patent US20100028457A1, “AGENT FOR PREVENTION OR TREATMENT OF BLOOD GLUCOSE LEVEL ELEVATION” (UNIVERSITY OF THE RYUKYUS, priority 2006, published 2010).

Key:
[1] = test system: PPARγ in bone marrow cells of femur; test: Expression of PPARγ mRNA in bone marrow cells of femur (real-time quantitative PCR); assay type: in vivo; details: KKAy mice after feeding; control group 5.05×10^−2 (100%)
[2] = test system: PPAR-α mRNA in pancreas; test: Quantification of expression of PPAR-α mRNA in pancreas (real-time quantitative PCR); assay type: in vivo; details: KKAy mice after feeding; ratio to GAPDH mRNA; control group 0.61 (100%), normal mice 123%
Experimental: (§4) According to the conventional method, RNA was extracted from the cells of pancreas and kidney. cDNA was prepared by a reverse transcription reaction from the RNA and quantitative determination of expression amount of mRNA related to diabetes was carried out by means of a real-time quantitative PCR. In the following experiments, quantitative determination of the expression amount of mRNA was analyzed using Mx 3000P (manufactured by Stratagene). In all cases, condition for the PCR was that a hot start was conduced at 95° C. for 10 minutes and then a cycle comprising 95° C. for 30 seconds, 60° C. for 1 minute and 72° C. for 30 seconds was repeated for 45 times. At the same time, dilution rows of five stages were prepared using a control RNA of 5 ng/μl concentration and expression amount of RNA was determined from the resulting standard curve. As to a reagent for the PCR, Brilliant SYBR Green QPCR Master Mix (manufactured by Stratagene) was used in accordance with a protocol for its manual for use. […] Incidentally, expression amount of mRNA of a test substance in each test was indicated in terms of a ng ratio of the commonly expressed GAPDH enzyme to the amount of mRNA (internal standard).
The expression amount of the PPAR-α mRNA was measured by the PCR using the following primers.

[3] = test system: PPAR-γ mRNA in kidney; test: Quantification of expression of PPAR-γ mRNA in kidney (real-time quantitative PCR); assay type: in vivo; details: KKAy mice after feeding; ratio to GAPDH mRNA; control group 0.56 (100%)
Experimental: as §4
Expression amount of PPAR-γ mRNA in kidney which adjusts adiponectin and its expression promoting the fatty acid combustion in tissues thereof was measured by the PCR using the following primers.

[4] = test system: insulin mRNA in pancreas; test: Quantification of expression of insulin mRNA in pancreas (real-time quantitative PCR); assay type: in vivo; details: KKAy mice after feeding; ratio to GAPDH mRNA; control group 5.12×10^4 (100%), normal mice 11%
Experimental: as §4
Expression amount of insulin mRNA in the pancreas was measured by the PCR using the following primers.

[5] = test system: PPAR-α mRNA in kidney; test: Quantification of expression of PPAR-α mRNA in kidney (real-time quantitative PCR); assay type: in vivo; details: KKAy mice after feeding; ratio to GAPDH mRNA; control group 0.532 (100%)
Experimental: as §4
Expression amount of PPAR-α mRNA in kidney was measured by the PCR using the following primers.

[6] = test system: plasma adiponectin; test: Plasma adiponectin concentration in KKAy mice at end of feeding; assay type: in vivo; details: 56th day, control group 1.1 μg/ml (100%), normal mice 46%
Experimental: (§1) Firstly, four kinds of feeds were prepared for animal tests.
(§2) Feeding of the mice of those four groups was conducted in a single feeding manner and water was freely taken by each mouse.
(§3) Blood glucose level during the feeding period (until the 51st day) and blood glucose level, blood insulin concentration, blood leptin concentration and adiponectin concentration were measured when the feeding finished (on the 56th day) whereby the action of each ingredient on the mice was checked. Further, in order to compare with the diabetic model mice, normal mice (eight males) of the same 13 weeks age were used as a normal group and their blood was collected upon finishing the feeding followed by measuring each of the above concentrations.
It has been said that a plasma adiponectin which is an anti-antidiabetic and anti-arteriosclerotic factor derived from fat tissues enhances insulin sensitivity and improves insulin resistant diabetes due to its action of activating the fatty acid oxidation in systemic muscles and reducing the neutral fat amount (Iichiro Shimomura, Toru Funahashi and Yuji Matsuzawa: Adiponectin—Anti-antidiabetic and anti-arteriosclerotic factor derived from fat tissues, Molecular Medicine, Vol. 39, No. 4, 416-423, 2002). […] The concentration of adiponectin was also measured upon finishing the feeding (on the 56th day).

[7] = test system: plasma insulin; test: Plasma insulin concentration in KKAy mice at end of feeding; assay type: in vivo; details: 56th day, control group 7.0 ng/ml (100%), normal mice 16%
Experimental: as §1, §2, §3
Concentration of insulin in plasma was measured upon finishing the feeding (on the 56th day).

[8] = test system: adiponectin mRNA in pancreas; test: Quantification of expression of adiponectin mRNA in pancreas (real-time quantitative PCR); assay type: in vivo; details: KKAy mice after feeding; ratio to GAPDH mRNA; control group 1.07 (100%), normal mice 145%
Experimental: as §4
Expression amount of adiponectin mRNA was measured by the PCR using the following primers.

[9] = test system: spontaneously obese insulin-resistant diabetic mice (KKAy); test: Blood glucose level in KKAy mice fed test feeds; assay type: in vivo; details: for blood glucose level upon finishing the feeding, % of control group: 56th day, control group 306 mg/dl (100%), normal mice 34%; for blood glucose level, mean value: tail vein blood
Experimental: as §1, §2, §3
During the feeding period for the two months, blood was collected from tail vein of the mice upon the initiation of the feeding (on the 0th day) and on the 15th, 37th and 51st days from the initiation of the feeding and the blood glucose level therein was measured.

[10] = test system: plasma leptin; test: Plasma leptin concentration in KKAy mice at end of feeding; assay type: in vivo; details: 56th day, control group 7.3 ng/ml (100%), normal mice 15%
Experimental: as §1, §2, §3
Concentration of leptin was also measured upon finishing the feeding (on the 56th day).

[11] = test system: adiponectin mRNA in kidney; test: Quantification of expression of adiponectin mRNA in kidney (real-time quantitative PCR); assay type: in vivo; details: KKAy mice after feeding; ratio to GAPDH mRNA; control group 2.53×10^−3 (100%)
Experimental: as §4
Expression amount of adiponectin mRNA in kidney was measured by the PCR using the following primers.

[12] = test system: PPAR-γ mRNA in pancreas; test: Quantification of expression of PPAR-γ mRNA in pancreas (real-time quantitative PCR); assay type: in vivo; details: KKAy mice after feeding; ratio to GAPDH mRNA; control group 0.28 (100%), normal mice 161%
Experimental: as §4
The expression amount of PPAR-γ mRNA was measured by the PCR using the following primer.

[13] = test system: patients suffering from osteoporosis; details: 32 osteoporosis patients, daily dose 6.4 g (1.7 g as Sr), three months to three years; cited from earlier work
[14] = 15th day of feeding, control group 214
[15] = 37th day of feeding, control group 386
[16] = 51st day of feeding, control group 339
[17] = initiation of feeding (0th day), control group 167

| Compound | expression amount of PPARγ in bone marrow cells of femur, % of control group [1] | expression amount of PPAR-α mRNA in pancreas, % of control group [2] | expression amount of PPAR-γ mRNA in kidney, % of control group [3] | expression amount of insulin mRNA in pancreas, % of control group [4] | expression amount of PPAR-α mRNA in kidney, % of control group [5] | plasma adiponectin concentration, % of control group [6] | plasma insulin concentration, % of control group [7] | expression amount of adiponectin mRNA in pancreas, % of control group [8] | blood glucose level upon finishing the feeding, % of control group [9] | blood glucose level, mean value [9, 14] | blood glucose level, mean value [9, 15] | blood glucose level, mean value [9, 16] | blood glucose level, mean value [9, 17] | plasma leptin concentration, % of control group [10] | expression amount of adiponectin mRNA in kidney, % of control group [11] | expression amount of PPAR-γ mRNA in pancreas, % of control group [12] | patients in whom improvement was achieved [13] |
| --- | --- | --- | --- | --- | --- | --- | --- | --- | --- | --- | --- | --- | --- | --- | --- | --- | --- |
| O=[Si]([O-])[O-].[Na+].[Na+] [Si group, sodium metasilicate] | 50% | 116% | 141% | 9% | 171% | 70% | 68% | 128% | 86% | 231 mg/dL | 268 mg/dL | 235 mg/dL | 156 mg/dL | 76% | 135% | 125% |  |
| CC(O)C(=O)[O-].CC(O)C(=O)[O-].[Sr+2] (stereo not drawn) [strontium lactate] |  |  |  |  |  |  |  |  |  |  |  |  |  |  |  |  | 84% |
| [Cl-].[Cl-].[Sr+2] [Sr group, strontium chloride] | 65% | 104% | 136% | 64% | 169% | 42% | 70% | 117% | 55% | 200 mg/dL | 288 mg/dL | 247 mg/dL | 150 mg/dL | 71% | 123% | 181% |  |
